What was measured:
[1] = system: peripheral blood mononuclear cells from Mtb-immune (PPD skin-test positive) subjects; format: cell-based, human; conditions: for Phil # responders (n = 38) / Phil % responders (n = 38): Philippines cohort; for Phil # responders (n = 38) / Phil % responders (n = 38) / Prov # responders (n = 22) / Prov % responders (n = 22): positive if SI≧2.0, peptide 1 and 10 μg/ml; for Prov # responders (n = 22) / Prov % responders (n = 22): Providence cohort; for number of Mtb-immune responders (proliferative response): all 40 Mtb-immune subjects
[2] = system: peripheral blood mononuclear cells from Mtb-naïve (PPD skin-test negative) subjects; assay: Lymphoproliferation assay ([3H]thymidine, stimulation index), Mtb-naïve group; format: cell-based, human; conditions: 19 Mtb-naïve controls; SI≧2.0

| Substance | Phil # responders (n = 38) [1] | Phil % responders (n = 38) [1] | Prov # responders (n = 22) [1] | Prov % responders (n = 22) [1] | % responders among Mtb-immune subjects ([1]; 40 Mtb-immune subjects, SI≧2.0) | Mtb-naïve controls who responded [2] | number of Mtb-immune responders (proliferative response) ([1]; SI≧2.0) | SI range [1] | Mtb-immune subjects showing an in vitro proliferative response ([1]; control antigen 5 μg/ml, 40 Mtb-immune subjects) | response to mitogen ([1]; PHA 1 μg/ml, the 41 subjects who were tested) |
| --- | --- | --- | --- | --- | --- | --- | --- | --- | --- | --- |
| MLGNAPSVVPNTTLGMHC (listed as Mycobacterium tuberculosis) [14-1, aa 1-18 of 14 kDa Mtb protein] | 2 | 5% | 2 | 5% |  |  |  |  |  |  |
| PLLNVGKLIANNTRVWVY (listed as Mycobacterium tuberculosis) [32-8, aa 193-210 of 32 kDa Mtb protein (Antigen 85A)] | 5 | 13% | 0 | 0% | 25% | none |  |  |  |  |
| QAVMLGTGTPNRA (listed as Mycobacterium tuberculosis) [14-4, aa 56-68 of 14 kDa Mtb protein] | 3 | 8% | 1 | 3% |  |  |  |  |  |  |
| QNVTGSVVCTTAAGNVN [19-2] | 3 | 8% | 4 | 10% |  |  | six |  |  |  |
| RHVKPTGSAVVGLSMAASSA (listed as Mycobacterium tuberculosis) [32-5, aa 113-132 of 32 kDa Mtb protein (Antigen 85A)] | 2 | 5% | 8 | 20% |  |  | six |  |  |  |
| RSLFPEFSELFAAFPSFAGL (listed as Mycobacterium tuberculosis) [16-1, aa 11-30 of 16 kDa Mtb protein] | 4 | 10% | 2 | 5% |  |  | six |  |  |  |
| SHYKITGTATGVD [19-5] | 1 | 3% | 3 | 8% |  |  |  |  |  |  |
| SVVMPVGGQSSFYSDW (listed as Mycobacterium tuberculosis) [32-3, aa 67-82 of 32 kDa Mtb protein (Antigen 85A)] | 5 | 13% | 2 | 5% |  |  | six |  |  |  |
| TFLTSELPGWLQ (listed as Mycobacterium tuberculosis) [32-4, aa 99-110 of 32 kDa Mtb protein (Antigen 85A)] | 2 | 5% | 2 | 5% |  |  |  |  |  |  |
| TT: tetanus toxoid, control antigen (Connaught) [reference compound] |  |  |  |  |  |  |  | 2-182 | All but six |  |
| VAVAGAAILVAGLSGCSSN [19-1] | 5 | 13% | 8 | 20% |  |  |  |  |  |  |
| VGLSMAASSALTLAIYHPQQ (listed as Mycobacterium tuberculosis) [32-6, aa 123-142 of 32 kDa Mtb protein (Antigen 85A)] | 4 | 10% | 6 | 15% |  |  | six |  |  |  |
| VSETISGPRLYGEMTMQGTR (listed as Mycobacterium tuberculosis) [14-6, aa 80-99 of 14 kDa Mtb protein] | 1 | 3% | 1 | 3% |  |  |  |  |  |  |
| VTLGYTSGTGQ (listed as Mycobacterium tuberculosis) [19-4, aa 107-117 of 19 kDa Mtb protein] | 2 | 5% | 3 | 8% |  |  |  |  |  |  |
| phytohemagglutinin [reference compound] |  |  |  |  |  |  |  |  |  | robust response |
